Data taken from patent US20100022509A1, “Inhibitors of MshC and Homologs Thereof, and Methods of Identifying Same” (priority 2006, published 2010).

The molecules below were run against T1, MshC (Mycobacterium tuberculosis, UniProt P9WJM9) (assay: biochemical). Settings: IC50.
T1 sequence (P9WJM9 1-414): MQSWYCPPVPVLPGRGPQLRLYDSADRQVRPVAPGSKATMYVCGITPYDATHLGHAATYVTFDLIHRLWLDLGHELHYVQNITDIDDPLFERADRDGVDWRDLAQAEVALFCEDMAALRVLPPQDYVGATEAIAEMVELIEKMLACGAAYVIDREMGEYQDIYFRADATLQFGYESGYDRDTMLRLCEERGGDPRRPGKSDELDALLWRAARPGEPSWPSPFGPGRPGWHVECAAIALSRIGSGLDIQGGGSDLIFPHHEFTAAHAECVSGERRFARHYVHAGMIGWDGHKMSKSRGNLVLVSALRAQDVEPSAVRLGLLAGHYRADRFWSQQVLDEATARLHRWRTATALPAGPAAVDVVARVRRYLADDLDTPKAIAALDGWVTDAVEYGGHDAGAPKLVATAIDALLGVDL
Type: biochemical, M. tuberculosis
In the case of `CCN1C(=O)c2ccccc2[S+]([O-])c2ccc(C(=O)NCCCN3CCCCCC3)cc21` (stereo not shown) [Inhibitor 83-15], the IC50 is reported as over 3 mM.
With `CCCN(CCC)CCCNC(=O)c1ccc2c(c1)N(CC)C(=O)c1ccccc1[S+]2[O-]` (stereo not shown) [Inhibitor 83-16] the IC50 was over 3 mM.
Work on `CCCCN(CCCC)CCCNC(=O)c1ccc2c(c1)N(CC)C(=O)c1ccccc1[S+]2[O-]` (stereo not shown) [Inhibitor 83-17] yielded an IC50 of over 3 mM.
For `CCN1C(=O)c2ccccc2[S+]([O-])c2ccc(C(=O)NCCCSC3CCCCC3)cc21` (stereo not shown) [Inhibitor 83-18], the IC50 was over 3 mM.
For `CCN1C(=O)c2ccccc2S(=O)(=O)c2ccc(C(=O)NCCCN3CCCCCC3)cc21` [Inhibitor 83-19], the IC50 was about 3 mM.
Molecule `CCCCN(CC)CCCNC(=O)c1ccc2c(c1)N(CC)C(=O)c1ccccc1S2(=O)=O` [Inhibitor 83-20] has an IC50 of over 3 mM.
`CCC1CCCCN1CCCNC(=O)c1ccc2c(c1)N(Cc1cccc(C)c1)C(=O)c1ccccc1S2(=O)=O` (stereo not shown) [Inhibitor 83-21] gave an IC50 of about 2 mM.
`Cc1cccc(CN2C(=O)c3ccccc3S(=O)(=O)c3ccc(C(=O)NCCCN4CCCC4)cc32)c1` [Inhibitor 83-22] was tested, and the IC50 was over 3 mM.
Work on `Cc1cccc(CN2C(=O)c3ccccc3S(=O)(=O)c3ccc(C(=O)NCCCN4CCCCCC4)cc32)c1` [Inhibitor 83-23] yielded an IC50 of over 3 mM.
`CCCCN(C)CCCNC(=O)c1ccc2c(c1)N(Cc1cccc(C)c1)C(=O)c1ccccc1S2(=O)=O` [Inhibitor 83-24] was tested, and the IC50 was 1.5 ± 0.5 mM.
`Cc1cccc(CN2C(=O)c3ccccc3S(=O)(=O)c3ccc(C(=O)NCCCN(C)C4CCCCC4)cc32)c1` [Inhibitor 83-25] gave an IC50 of over 3 mM.
For `CC1CC(C)CN(CCCNC(=O)c2ccc3c(c2)N(Cc2ccc(Cl)cc2)C(=O)c2ccccc2S3(=O)=O)C1` (stereo not shown) [Inhibitor 83-29], the IC50 was over 3 mM.
In the case of `CC1CCCCN1CCNC(=O)c1ccc2c(c1)N(Cc1ccc(Cl)cc1)C(=O)c1ccccc1S2(=O)=O` (stereo not shown) [Inhibitor 83-30], the IC50 is reported as over 3 mM.
In the case of `CC(C)CN(CCCNC(=O)c1ccc2c(c1)N(Cc1ccc(Cl)cc1)C(=O)c1ccccc1S2(=O)=O)CC(C)C` [Inhibitor 83-34], the IC50 is reported as over 3 mM.
With `CN(CCCNC(=O)c1ccc2c(c1)N(Cc1ccc(Cl)cc1)C(=O)c1ccccc1S2(=O)=O)C1CCCCC1` [Inhibitor 83-35] the IC50 was 0.35 ± 0.04 mM.
In the case of `CN(CCCNC(=O)c1ccc2c(c1)N(Cc1ccc(Cl)cc1)C(=O)c1ccccc1S2(=O)=O)c1ccccc1` [Inhibitor 83-36], the IC50 is reported as over 3 mM.
`Cc1ccc(C)c(CN2C(=O)c3ccccc3S(=O)(=O)c3ccc(C(=O)NCCCN4CCOCC4)cc32)c1` [Inhibitor 83-43] was tested, and the IC50 was over 3 mM.
Molecule `Cc1ccc(C)c(CN2C(=O)c3ccccc3S(=O)(=O)c3ccc(C(=O)NCCN4CCCCC4C)cc32)c1` (stereo not shown) [Inhibitor 83-45] has an IC50 of over 3 mM.
For `Cc1ccc(C)c(CN2C(=O)c3ccccc3S(=O)(=O)c3ccc(C(=O)NCCCN(C)C4CCCCC4)cc32)c1` [Inhibitor 83-46], the IC50 was at least 0.5 mM.
Work on `CCC1CCCCN1CCCNC(=O)c1ccc2c(c1)N(Cc1ccccc1)C(=O)c1ccccc1S2(=O)=O` (stereo not shown) [Inhibitor 83-48] yielded an IC50 of at least 0.5 mM.
`CC1CC(C)CN(CCCNC(=O)c2ccc3c(c2)N(Cc2ccccc2)C(=O)c2ccccc2S3(=O)=O)C1` (stereo not shown) [Inhibitor 83-49] gave an IC50 of about 2 mM.
`CCN1CCN(CCCNC(=O)c2ccc3c(c2)N(Cc2ccccc2)C(=O)c2ccccc2S3(=O)=O)CC1` [Inhibitor 83-50] gave an IC50 of over 3 mM.
For `CC1CCCN(CCCNC(=O)c2ccc3c(c2)N(Cc2ccccc2)C(=O)c2ccccc2S3(=O)=O)C1` (stereo not shown) [Inhibitor 83-51], the IC50 was 1.7 ± 0.4 mM.

Same assay, conditions: X=S, X=SO, X=SO2
In the case of `CN(CCCNC(=O)c1ccc2c(c1)N(Cc1ccc(Cl)cc1)C(=O)c1ccccc1S2(=O)=O)C1CCCCC1` [Inhibitor 83-35], the “inhibition of MshC in words, compounds grouped by X” value is reported as “Significant inhibition”.

Same assay, conditions: assayed under the conditions described in [0186]; read-out: IC50 (inhibits MshC)
`Nc1ncnc2c1ncn2[C@@H]1O[C@H](COS(=O)(=O)NC(=O)[C@@H](N)CS)[C@@H](O)[C@H]1O` [5′-O-[N-(L-cysteinyl)sulfamoyl]adenosine, reference compound] was tested, and the IC50 was about 4e-05 mM.
